The values below are quoted from earlier work in US20150315247A1, “High-affinity peptide-based anticancer vaccination to overcome tumor resistance to immunostimulatory antibodies and to identify TCRs that can be used successfully in adoptive T cell therapy” (priority 2014, published 2015).

The IC50 is the point on the concentration scale where inhibition reaches its midpoint.

This series has as its target T1, H-2K^b (mouse MHC) (Mus musculus, UniProt P01901).
T1 sequence (P01901 22-369): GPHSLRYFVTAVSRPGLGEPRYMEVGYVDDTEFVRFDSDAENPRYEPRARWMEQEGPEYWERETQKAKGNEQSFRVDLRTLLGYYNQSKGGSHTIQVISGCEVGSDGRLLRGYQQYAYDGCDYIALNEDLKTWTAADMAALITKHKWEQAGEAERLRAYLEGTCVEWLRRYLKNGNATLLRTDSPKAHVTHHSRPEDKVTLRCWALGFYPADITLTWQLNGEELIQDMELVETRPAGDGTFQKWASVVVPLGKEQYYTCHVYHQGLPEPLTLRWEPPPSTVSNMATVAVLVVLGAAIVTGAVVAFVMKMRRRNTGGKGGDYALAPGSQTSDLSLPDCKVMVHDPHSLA
T1 sequence (P01887 21-119 partner): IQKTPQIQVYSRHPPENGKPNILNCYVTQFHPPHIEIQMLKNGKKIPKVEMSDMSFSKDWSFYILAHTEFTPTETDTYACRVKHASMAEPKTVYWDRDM
The settings on record: SIINFEKL peptide binding to H-2K^b; read-out: peptide-H-2K^b affinity IC50.

Consider SIINFEKL [SIINFEKL peptide], for which the IC50 was 0.9 nM.
